Results: patent publication US9204653B2, “5-fluoro pyrimidine derivatives” (DOW AGROSCIENCES LLC, priority 2008, dated 2015)
Read-outs that look alike come from different tables or passages of the source.

System: Mycosphaerella graminicola; Anamorph: Septoria tritici; Bayer Code SEPTTR
Experiment: Leaf blotch of wheat, foliar fungicide treatment, one day protectant (1DP) or three day curative (3DC)
Type: in vivo, Septoria tritici on wheat plants (variety Yuma)
Settings: Zymoseptoria tritici; for pest or weed control at 50 ppm / pest or weed control at 200 ppm: % disease control rating
[1] = 24 h, one day protectant (1DP), 25 ppm, rating of percent disease control, read-out: SETTTR 1DP 25 ppm
[2] = 24 h, one day protectant (1DP), rating of percent disease control, read-out: SEPTTR 1DP 100 ppm
[3] = 72 h, three day curative (3DC), 25 ppm, rating of percent disease control, read-out: SEPTTR 3DC 25 ppm
[4] = 72 h, three day curative (3DC), rating of percent disease control, read-out: SEPTTR 3DC 100 ppm
[5] = 24 h, one day protectant (1DP), 25 ppm, percent disease control rating, read-out: SETTTR 1DP 25 ppm
[6] = 24 h, one day protectant (1DP), percent disease control rating, read-out: SEPTTR 1DP 100 ppm
[7] = 72 h, three day curative (3DC), 25 ppm, percent disease control rating, read-out: SEPTTR 3DC 25 ppm
[8] = 72 h, three day curative (3DC), percent disease control rating, read-out: SEPTTR 3DC 100 ppm
[9] = 24 h, one day protectant (1DP), 25 ppm (first 1DP column), percent control rating, read-out: SETTTR 1DP 25 ppm
[10] = 24 h, one day protectant (1DP), 25 ppm as printed (second 1DP column), percent control rating, read-out: SETTTR 1DP 25 ppm
[11] = 72 h, three day curative (3DC), 25 ppm, percent control rating, read-out: SEPTTR 3DC 25 ppm
[12] = 72 h, three day curative (3DC), percent control rating, read-out: SEPTTR 3DC 100 ppm

COc1ccc(Br)c(COc2ncc(F)c(N)n2)c1F [Compound 224]
pest or weed control at 25 ppm [1]: 26 to 50% | pest or weed control at 100 ppm [2]: 76 to 100% | pest or weed control at 25 ppm [3]: 0 to 25% | pest or weed control at 100 ppm [4]: 26 to 50%

Nc1nc(OCc2cccc(Br)c2)ncc1F [Compound 2, 2-(3-Bromobenzyloxy)-5-fluoropyrimidin-4-ylamine]
pest or weed control at 25 ppm [5]: 76 to 100% | pest or weed control at 100 ppm [6]: 76 to 100% | pest or weed control at 25 ppm [7]: 76 to 100% | pest or weed control at 100 ppm [8]: 76 to 100%

COc1ccc(N(N)c2nc(OCc3cccc(OC)c3)ncc2F)cc1 [Compound 31, 5-Fluoro-2-(3-methoxybenzyloxy)-4-(1-(4-methoxyphenyl)-hydrazinyl)pyrimidine]
pest or weed control at 25 ppm [5]: 0 to 25% | pest or weed control at 100 ppm [6]: 0 to 25% | pest or weed control at 25 ppm [7]: 0 to 25% | pest or weed control at 100 ppm [8]: 0 to 25%

N#Cc1ccnc(COc2ncc(F)c(N)n2)c1 [Compound 522]
pest or weed control at 25 ppm [1]: 0 to 25% | pest or weed control at 100 ppm [2]: 26 to 50% | pest or weed control at 25 ppm [3]: 0 to 25% | pest or weed control at 100 ppm [4]: 0 to 25%

Fc1cnc(OCCc2ccccc2)nc1NCc1cccs1 [Compound 843]
pest or weed control at 50 ppm (24 h, one day protectant): 26 to 50% | pest or weed control at 200 ppm (24 h, one day protectant): 76 to 100%

Fc1cnc(OCc2ccccn2)nc1NCc1ccc(Cl)cc1 [Compound 935]
pest or weed control at 50 ppm (24 h, one day protectant): 26 to 50% | pest or weed control at 200 ppm (24 h, one day protectant): 76 to 100%

COc1ncc(F)c(NNC(=O)c2ccc(Cl)cc2)n1 [Compound 1121]
pest or weed control at 25 ppm [9]: 0 to 25% | pest or weed control at 25 ppm [10]: 0 to 25% | pest or weed control at 25 ppm [11]: 0 to 25% | pest or weed control at 100 ppm [12]: 0 to 25%

CC(C)S(=O)(=O)Nc1nc(OCc2ccc(F)cc2)ncc1F [Compound 1004]
pest or weed control at 25 ppm [9]: 0 to 25% | pest or weed control at 25 ppm [10]: 0 to 25% | pest or weed control at 25 ppm [11]: 0 to 25% | pest or weed control at 100 ppm [12]: 26 to 50%

N#C/C(=N\Oc1ncc(F)c(N)n1)c1ccccc1 [Compound 640]
pest or weed control at 25 ppm (24 h, one day protectant, 25 ppm, rating of percent disease control, read-out: SETTTR 1DP 25 ppm): 76 to 100% | pest or weed control at 100 ppm (24 h, one day protectant, rating of percent disease control, read-out: SEPTTR 1DP 100 ppm): 76 to 100% | pest or weed control at 25 ppm (72 h, three day curative, 25 ppm, rating of percent disease control, read-out: SEPTTR 3DC 25 ppm): 76 to 100% | pest or weed control at 100 ppm (72 h, three day curative, rating of percent disease control, read-out: SEPTTR 3DC 100 ppm): 76 to 100%

Fc1cnc(OCc2ccccc2)nc1/N=N/c1cccc(C(F)(F)F)c1 [Compound 958]
pest or weed control at 25 ppm [9]: 0 to 25% | pest or weed control at 25 ppm [10]: 0 to 25% | pest or weed control at 25 ppm [11]: 26 to 50% | pest or weed control at 100 ppm [12]: 26 to 50%

Nc1cccc(COc2ncc(F)c(N)n2)c1 [Compound 430]
pest or weed control at 25 ppm [1]: 76 to 100% | pest or weed control at 100 ppm [2]: 76 to 100% | pest or weed control at 25 ppm [3]: 76 to 100% | pest or weed control at 100 ppm [4]: 76 to 100%

Fc1ccccc1NC(=S)Nc1nc(OCc2ccccc2)ncc1F [Compound 539]
pest or weed control at 25 ppm [1]: 76 to 100% | pest or weed control at 100 ppm [2]: 76 to 100% | pest or weed control at 25 ppm [3]: 0 to 25% | pest or weed control at 100 ppm [4]: 0 to 25%

COc1cccc(COc2ncc(F)c(NN3CCN(C)CC3)n2)c1 [Compound 77]
pest or weed control at 25 ppm [5]: 0 to 25% | pest or weed control at 100 ppm [6]: 76 to 100% | pest or weed control at 25 ppm [7]: 26 to 50% | pest or weed control at 100 ppm [8]: 76 to 100%

Fc1cnc(OCc2c(Cl)cccc2Cl)nc1NCc1cccs1 [Compound 835]
pest or weed control at 200 ppm (24 h, one day protectant): 76 to 100%

COc1cccc(COc2ncc(F)c(NC(=S)NCc3ccccc3F)n2)c1 [Compound 54]
pest or weed control at 25 ppm [5]: 51 to 75% | pest or weed control at 100 ppm [6]: 76 to 100% | pest or weed control at 25 ppm [7]: 0 to 25% | pest or weed control at 100 ppm [8]: 0 to 25%

Cc1ccc(CNc2nc(OCC(F)(F)F)ncc2F)cc1 [Compound 872]
pest or weed control at 50 ppm (24 h, one day protectant): 26 to 50% | pest or weed control at 200 ppm (24 h, one day protectant): 51 to 75%

CNc1nc(OCc2cccs2)ncc1F [Compound 237]
pest or weed control at 25 ppm [1]: 0 to 25% | pest or weed control at 100 ppm [2]: 0 to 25% | pest or weed control at 25 ppm [3]: 0 to 25% | pest or weed control at 100 ppm [4]: 0 to 25%

Fc1cnc(OCCc2ccccc2)nc1N1CCOCC1 [Compound 828]
pest or weed control at 50 ppm (24 h, one day protectant): 0 to 25% | pest or weed control at 200 ppm (24 h, one day protectant): 0 to 25%

Fc1cccc(COc2ncc(F)c(NCc3ccccc3F)n2)c1 [Compound 824]
pest or weed control at 50 ppm (24 h, one day protectant): 76 to 100% | pest or weed control at 200 ppm (24 h, one day protectant): 76 to 100%

Oc1ncc(F)c(NOCc2ccccc2)n1 [Compound 1095]
pest or weed control at 25 ppm [9]: 0 to 25% | pest or weed control at 25 ppm [10]: 0 to 25% | pest or weed control at 25 ppm [11]: 0 to 25% | pest or weed control at 100 ppm [12]: 0 to 25%

COc1ccc(Oc2ncc(F)c(NCO)n2)cc1 [Compound 113]
pest or weed control at 25 ppm [5]: 51 to 75% | pest or weed control at 100 ppm [6]: 76 to 100% | pest or weed control at 25 ppm [7]: 0 to 25% | pest or weed control at 100 ppm [8]: 26 to 50%
